In patent US7998952B2, “Thiolactams and uses thereof” (Millennium Pharmaceuticals, Inc., priority 2008, dated 2011):

Biological target: T1, recombinant human PLK1[2-369]T210D (Homo sapiens, UniProt P53350, T210D)
T1 construct: recombinant human PLK1[2-369]T210D; Smt (SUMO) fusion partner (N, cleaved yes); host or cells: E. coli
Experiment: PLK1 DELFIA Kinase Assay
Type: biochemical
Settings: 50 μM ATP, 2 μM peptide substrate, 0.3 nM enzyme, 90 minutes at room temperature
In short: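 E. coli-expressed human PLK1, cleaved from an Smt fusion after Ni2+ purification, is reacted with or without inhibitor for 90 minutes at room temperature and stopped with EDTA. Product is captured on Neutravidin plates and quantified by europium DELFIA time-resolved fluorescence.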

T1 sequence (P53350 2-369 T210D): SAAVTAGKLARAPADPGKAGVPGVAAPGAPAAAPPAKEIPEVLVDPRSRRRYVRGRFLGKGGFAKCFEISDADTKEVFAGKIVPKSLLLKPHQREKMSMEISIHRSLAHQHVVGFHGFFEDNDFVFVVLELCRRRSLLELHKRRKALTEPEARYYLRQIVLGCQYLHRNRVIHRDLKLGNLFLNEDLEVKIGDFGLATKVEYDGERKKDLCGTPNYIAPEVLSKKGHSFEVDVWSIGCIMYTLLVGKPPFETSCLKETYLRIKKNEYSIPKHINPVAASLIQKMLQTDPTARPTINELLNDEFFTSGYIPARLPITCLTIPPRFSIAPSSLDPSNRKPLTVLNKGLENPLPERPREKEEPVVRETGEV

| SMILES | IC50 [nM] |
| --- | --- |
| Cc1nc(N(C)C2CCN(C)CC2)ccc1Nc1ncc2c(n1)-c1ccc(C(F)(F)F)cc1NC(=S)C2 [Compound I-75, 2-({2-methyl-6-[methyl(1-methylpiperidin-4-yl)amino]pyridin-3-yl}amino)-9-(trifluoromethyl)-5,7-dihydro-6H-pyrimido[5,4-d][1]benzazepine-6-thione] | < 5 |
| S=C1Cc2cnc(Nc3ccc(N4CCCC4)nc3)nc2-c2ccc(Cl)cc2N1 [Compound I-47, 9-chloro-2-[(6-pyrrolidin-1-ylpyridin-3-yl)amino]-5,7-dihydro-6H-pyrimido[5,4-d][1]benzazepine-6-thione] | < 5 |
| CCN1[C@H](C)CN(c2cnc(C)c(Nc3ncc4c(n3)-c3ccc(Cl)cc3NC(=S)C4)c2)C[C@@H]1C [Compound I-49, 9-chloro-2-({5-[(3R,5S)-4-ethyl-3,5-dimethylpiperazin-1-yl]-2-methylpyridin-3-yl}amino)-5,7-dihydro-6H-pyrimido[5,4-d][1]benzazepine-6-thione] | < 5 |
| Cc1nc(N2CCCC2)ccc1Nc1ncc2c(n1)-c1ccc(Cl)cc1NC(=S)C2 [Compound I-106, 9-chloro-2-[(2-methyl-6-pyrrolidin-1-ylpyridin-3-yl)amino]-5,7-dihydro-6H-pyrimido[5,4-d][1]benzazepine-6-thione] | < 5 |
| Cc1ncc(CCNC2CCCC2)cc1Nc1ncc2c(n1)-c1ccc(Cl)cc1NC(=S)C2 [Compound I-30, 9-chloro-2-({5-[2-(cyclopentylamino)ethyl]-2-methylpyridin-3-yl}amino)-5,7-dihydro-6H-pyrimido[5,4-d][1]benzazepine-6-thione] | > 25 |
| Cc1nc(N(C)CCCN(C)C)ccc1Nc1ncc2c(n1)-c1ccc(C(F)(F)F)cc1NC(=S)C2 [Compound I-88, 2-({6-[[3-(dimethylamino)propyl](methyl)amino]-2-methylpyridin-3-yl}amino)-9-(trifluoromethyl)-5,7-dihydro-6H-pyrimido[5,4-d][1]benzazepine-6-thione] | < 5 |
| CN(C)CCCc1cc2c(cc1Cl)NC(=S)Cc1cnc(Nc3cccnc3)nc1-2 [Compound I-33, 9-chloro-10-[3-(dimethylamino)propyl]-2-(pyridin-3-ylamino)-5,7-dihydro-6H-pyrimido[5,4-d][1]benzazepine-6-thione] | 5 to 25 |
| Cc1ncc(CCCN)cc1Nc1ncc2c(n1)-c1ccc(C(F)(F)F)cc1NC(=S)C2 [Compound I-90, 2-{[5-(3-aminopropyl)-2-methylpyridin-3-yl]amino}-9-(trifluoromethyl)-5,7-dihydro-6H-pyrimido[5,4-d][1]benzazepine-6-thione] | < 5 |
| CN(C)CCc1cncc(Nc2ncc3c(n2)-c2ccc(C(F)(F)F)cc2NC(=S)C3)c1 [Compound I-25, 2-({5-[2-(dimethylamino)ethyl]pyridin-3-yl}amino)-9-(trifluoromethyl)-5,7-dihydro-6H-pyrimido[5,4-d][1]benzazepine-6-thione] | < 5 |
| Cc1nc(C(=O)NC2CCN(C)CC2)ccc1Nc1ncc2c(n1)-c1ccc(Cl)cc1NC(=S)C2 [Compound I-116, 5-[(9-chloro-6-thioxo-6,7-dihydro-5H-pyrimido[5,4-d][1]benzazepin-2-yl)amino]-6-methyl-N-(1-methylpiperidin-4-yl)pyridine-2-carboxamide] | 5 to 25 |
| CN(C)CCc1cnc(C(F)(F)F)c(Nc2ncc3c(n2)-c2ccc(Cl)cc2NC(=S)C3)c1 [Compound I-70, 9-chloro-2-{[5-[2-(dimethylamino)ethyl]-2-(trifluoromethyl)pyridin-3-yl]amino}-5,7-dihydro-6H-pyrimido[5,4-d][1]benzazepine-6-thione] | 5 to 25 |
| Cc1nc(N(C)C2CCN(C)CC2)ccc1Nc1ncc2c(n1)-c1ccc(Cl)cc1NC(=S)C2 [Compound I-105, 9-chloro-2-({2-methyl-6-[methyl(1-methylpiperidin-4-yl)amino]pyridin-3-yl}amino)-5,7-dihydro-6H-pyrimido[5,4-d][1]benzazepine-6-thione] | < 5 |
| Cc1nc(NC2CCN(C)CC2)ccc1Nc1ncc2c(n1)-c1ccc(C(F)(F)F)cc1NC(=S)C2 [Compound I-92, 2-({2-methyl-6-[(1-methylpiperidin-4-yl)amino]pyridin-3-yl}amino)-9-(trifluoromethyl)-5,7-dihydro-6H-pyrimido[5,4-d][1]benzazepine-6-thione] | < 5 |
| Cc1nc(C(=O)NCCN(C)C)ccc1Nc1ncc2c(n1)-c1ccc(C(F)(F)F)cc1NC(=S)C2 [Compound I-118, N-[2-(dimethylamino)ethyl]-6-methyl-5-{[6-thioxo-9-(trifluoromethyl)-6,7-dihydro-5H-pyrimido[5,4-d][1]benzazepin-2-yl]amino}pyridine-2-carboxamide] | 5 to 25 |
| Cc1nc2c(cc1Nc1ncc3c(n1)-c1ccc(C(F)(F)F)cc1NC(=S)C3)CCCN2 [Compound I-115, 2-[(2-methyl-5,6,7,8-tetrahydro-1,8-naphthyridin-3-yl)amino]-9-(trifluoromethyl)-5,7-dihydro-6H-pyrimido[5,4-d][1]benzazepine-6-thione] | < 5 |
| CC(C)(C)C(=O)Nc1ccc(Nc2ncc3c(n2)-c2ccc(Cl)cc2NC(=S)C3)cn1 [Compound I-102, N-{5-[(9-chloro-6-thioxo-6,7-dihydro-5H-pyrimido[5,4-d][1]benzazepin-2-yl)amino]pyridin-2-yl}-2,2-dimethylpropanamide] | 5 to 25 |
| Cc1ncc(C2CCN(CCF)CC2)cc1Nc1ncc2c(n1)-c1ccc(Cl)cc1NC(=S)C2 [Compound I-84, 9-chloro-2-({5-[1-(2-fluoroethyl)piperidin-4-yl]-2-methylpyridin-3-yl}amino)-5,7-dihydro-6H-pyrimido[5,4-d][1]benzazepine-6-thione] | < 5 |
| Cc1ncc(C2CCN(C)CC2)cc1Nc1ncc2c(n1)-c1ccc(Cl)cc1NC(=S)C2 [Compound I-14, 9-chloro-2-{[2-methyl-5-(1-methylpiperidin-4-yl)pyridin-3-yl]amino}-5,7-dihydro-6H-pyrimido[5,4-d][1]benzazepine-6-thione] | < 5 |
| CN1CCN(c2ccc(Nc3ncc4c(n3)-c3ccc(C(F)(F)F)cc3NC(=S)C4)cn2)CC1 [Compound I-61, 2-{[6-(4-methylpiperazin-1-yl)pyridin-3-yl]amino}-9-(trifluoromethyl)-5,7-dihydro-6H-pyrimido[5,4-d][1]benzazepine-6-thione] | < 5 |
| Cc1ccc(Nc2ncc3c(n2)-c2ccc(C(F)(F)F)cc2NC(=S)C3)c(C)n1 [Compound I-4, 2-[(2,6-dimethylpyridin-3-yl)amino]-9-(trifluoromethyl)-5,7-dihydro-6H-pyrimido[5,4-d][1]benzazepine-6-thione] | < 5 |
| Cc1ncc(CCN(C)C)cc1Nc1ncc2c(n1)-c1ccc(C(F)(F)F)cc1NC(=S)C2 [Compound I-50, 2-({5-[2-(dimethylamino)ethyl]-2-methylpyridin-3-yl}amino)-9-(trifluoromethyl)-5,7-dihydro-6H-pyrimido[5,4-d][1]benzazepine-6-thione] | < 5 |
| Cc1ncc(CCCN(C)C)cc1Nc1ncc2c(n1)-c1cc(C(F)(F)F)ccc1NC(=S)C2 [Compound I-117, 2-({5-[3-(dimethylamino)propyl]-2-methylpyridin-3-yl}amino)-10-(trifluoromethyl)-5,7-dihydro-6H-pyrimido[5,4-d][1]benzazepine-6-thione] | 5 to 25 |
| Cc1ccnc(C)c1Nc1ncc2c(n1)-c1ccc(Cl)cc1NC(=S)C2 [Compound I-37, 9-chloro-2-[(2,4-dimethylpyridin-3-yl)amino]-5,7-dihydro-6H-pyrimido[5,4-d][1]benzazepine-6-thione] | > 25 |
| COc1ncc(Nc2ncc3c(n2)-c2ccc(Cl)cc2NC(=S)C3)cc1CCCN(C)C [Compound I-8, 9-chloro-2-({5-[3-(dimethylamino)propyl]-6-methoxypyridin-3-yl}amino)-5,7-dihydro-6H-pyrimido[5,4-d][1]benzazapine-6-thione] | < 5 |
| Cc1nc(NC2CCNCC2)ccc1Nc1ncc2c(n1)-c1ccc(C(F)(F)F)cc1NC(=S)C2 [Compound I-67, 2-{[2-methyl-6-(piperidin-4-ylamino)pyridin-3-yl]amino}-9-(trifluoromethyl)-5,7-dihydro-6H-pyrimido[5,4-d][1]benzazepine-6-thione] | < 5 |
| Cc1nc2c(cc1Nc1ncc3c(n1)-c1ccc(C(F)(F)F)cc1NC(=S)C3)C[C@@H](N(C)C)CC2 [Compound I-114] | < 5 |
| Cc1ncc(CCN2CCCC2)cc1Nc1ncc2c(n1)-c1ccc(Cl)cc1NC(=S)C2 [Compound I-45, 9-chloro-2-{[2-methyl-5-(2-pyrrolidin-1-ylethyl)pyridin-3-yl]amino}-5,7-dihydro-6H-pyrimido[5,4-d][1]benzazepine-6-thione] | < 5 |
| Cc1ncc(CCN2CCN(C)CC2)cc1Nc1ncc2c(n1)-c1ccc(Cl)cc1NC(=S)C2 [Compound I-6, 9-chloro-2-({2-methyl-5-[2-(4-methylpiperazin-1-yl)ethyl]pyridin-3-yl}amino)-5,7-dihydro-6H-pyrimido[5,4-d][1]benzazepine-6-thione] | < 5 |
| Cc1nc(NCCCN(C)C)ccc1Nc1ncc2c(n1)-c1ccc(Cl)cc1NC(=S)C2 [Compound I-76, 9-chloro-2-[(6-{[3-(dimethylamino)propyl]amino}-2-methylpyridin-3-yl)amino]-5,7-dihydro-6H-pyrimido[5,4-d][1]benzazepine-6-thione] | < 5 |
